Test results as given in patent US12486280B2, “CDK inhibitors and uses thereof” (California Institute of Technology, priority 2018, dated 2025).
Converted amounts (≈) assume the structure as drawn. Like-named read-outs stand apart in the source and are kept apart here.

Columns and labels:
[1] = Caco-2 Assay (Papp A to B); settings: human, Caco-2, pH 7.4
Protocol: The degree of bi-directional human intestinal permeability for compounds was estimated using a Caco-2 cell permeability assay. Caco-2 cells were seeded onto polyethylene membranes in 96-well plates. The growth medium was refreshed every 4 to 5 days until cells formed a confluent cell monolayer. HBSS with 10 mM HEPES at pH 7.4 was used as the transport buffer. Compounds were tested at 2 μM bi-directionally in duplicate. Digoxin, nadolol and metoprolol were included as standards. Digoxin was tested at 10 μM bi-directionally in duplicate, while nadolol and metoprolol were tested at 2 μM in the A to B direction in duplicate. The final DMSO concentration was adjusted to less than 1% for all experiments. The plate was incubated for 2 hours in a CO2 incubator at 37° C., with 5% CO2 at saturated humidity. After incubation, all wells were mixed with acetonitrile containing an internal standard, and the plate was centrifuged at 4,000 rpm for 10 minutes. 100 μL supernatant was collected from each well and diluted with 100 μL distilled water for LC/MS/MS analysis. Concentrations of test and control compounds in starting solution, donor solution, and receiver solution were quantified by LC/MS/MS, using peak area ratio of analyte/internal standard. The apparent permeability coefficient Papp (cm/s) was calculated using the equation: Papp=(dCr/dt)×Vr/(A×C0) Where dCr/dt is the cumulative concentration of compound in the receiver chamber as a function of time (μM/s); Vr is the solution volume in the receiver chamber (0.075 mL on the apical side, 0.25 mL on the basolateral side); A is the surface area for the transport, which is 0.0804 cm^2 for the area of the monolayer; C0 is the initial concentration in the donor chamber (μM).

[2] = test system: CYP isozymes (IC50s averaged over the isozymes); assay: CYP Enzymatic Inhibition Assay in human liver microsomes
Protocol: Inhibition of various CYP isozymes was measured for each compound using a CYP enzyme inhibition assay in human liver microsomes (HLM). Compounds and standard inhibitors were prepared at a 100× working solutions. Substrates or PBS were added to the corresponding wells followed by addition of compounds, solvent or positive control working solution to corresponding wells. HLMs were added to the pre-warmed (37° C.) plate and mixed with NADPH cofactor for 10 minutes at 37° C. The reaction was terminated by adding 400 μL cold stop solution (200 ng/mL Tolbutamide and 200 ng/mL Labetalol in ACN). The plate was centrifuged at 4,000 rpm for 20 minutes, and supernatant was transferred to 100 μL HPLC water followed by LC/MS/MS analysis.

[3] = test system: drug-resistant cell lines of Table 2 (NCI-H1437, OV207, HCC1806, NCI-H2172); assay: Cell Line Growth Retardation Assay, resistant cohort; assay type: cell-based, human; settings: Homo sapiens, […], geometric mean over resistant cohort; 6 days growth; read-out: AvgResIC50
Protocol: (§1) Cells were seeded at densities of 1,000-5,000 cells per well in 48-well tissue culture plates. After a 24 hours rest period, cells were treated with compound at 10 μM, 2 μM, 0.4 μM, 0.08 μM, 0.016 μM, and 0.0032 μM. A group of cells were treated with the vehicle in which the compound was prepared and served as a control. The cells were grown in the presence of compounds for 6 days and were counted on day 0 and day 6. A11 cell counting was performed using a Synentec Cellavista plate imager. […] Growth inhibition was calculated as a ratio of cell population doublings in the presence of compound versus the absence of compound. […] IC50 values for each compound (see Table 3; reported in μM) were calculated by fitting curves to data points from each dose-response assay using the Proc NLIN function in SAS for Windows version 9.2 (SAS Institute, Inc.).
(§2) These sensitive and resistant cohorts were interrogated for response to each compound, and IC50s were calculated for each cell line using the same technique described above. Average IC50s for the sensitive and resistant cohorts were calculated as geometric means of the group. “Therapeutic Window” for each compound was calculated by dividing the average IC50 for the drug-resistant group by the average IC50 for the drug-sensitive group.

hERG potassium channels = hERG potassium channels (Homo sapiens (Human), UniProt Q12809); assay: hERG Inhibition Assay (QPatch automated patch clamp, CHO cells); settings: percent of control current
Chain of hERG potassium channels (Q12809 whole entry): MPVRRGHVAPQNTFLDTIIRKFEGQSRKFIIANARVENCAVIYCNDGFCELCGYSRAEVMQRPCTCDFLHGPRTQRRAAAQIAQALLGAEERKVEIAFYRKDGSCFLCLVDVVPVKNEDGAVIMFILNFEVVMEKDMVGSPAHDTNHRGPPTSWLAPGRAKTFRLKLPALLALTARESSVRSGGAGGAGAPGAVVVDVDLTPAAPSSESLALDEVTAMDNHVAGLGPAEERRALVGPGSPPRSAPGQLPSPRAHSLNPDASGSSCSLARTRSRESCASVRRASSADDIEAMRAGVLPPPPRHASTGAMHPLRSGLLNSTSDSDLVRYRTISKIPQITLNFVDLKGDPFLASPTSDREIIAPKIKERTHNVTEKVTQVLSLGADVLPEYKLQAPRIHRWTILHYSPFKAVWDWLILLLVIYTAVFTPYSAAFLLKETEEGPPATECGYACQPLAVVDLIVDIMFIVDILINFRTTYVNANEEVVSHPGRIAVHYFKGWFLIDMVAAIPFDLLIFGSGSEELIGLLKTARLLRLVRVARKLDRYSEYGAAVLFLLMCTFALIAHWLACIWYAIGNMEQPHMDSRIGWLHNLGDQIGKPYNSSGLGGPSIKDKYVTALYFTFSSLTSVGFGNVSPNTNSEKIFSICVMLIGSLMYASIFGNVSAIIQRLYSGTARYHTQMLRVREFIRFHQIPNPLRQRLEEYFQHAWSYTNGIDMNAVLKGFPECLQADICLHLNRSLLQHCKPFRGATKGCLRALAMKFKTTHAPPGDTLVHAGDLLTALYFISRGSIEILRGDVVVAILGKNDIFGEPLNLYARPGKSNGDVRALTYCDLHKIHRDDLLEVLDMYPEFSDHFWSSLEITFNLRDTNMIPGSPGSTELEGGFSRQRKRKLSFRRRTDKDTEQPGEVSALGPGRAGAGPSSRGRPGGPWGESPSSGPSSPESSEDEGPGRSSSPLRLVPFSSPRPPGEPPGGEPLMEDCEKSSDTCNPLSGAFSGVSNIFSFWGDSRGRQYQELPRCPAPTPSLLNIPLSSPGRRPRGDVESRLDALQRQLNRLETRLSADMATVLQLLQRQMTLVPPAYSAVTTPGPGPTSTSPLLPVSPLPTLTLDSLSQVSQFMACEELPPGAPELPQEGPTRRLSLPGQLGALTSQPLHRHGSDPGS
Protocol: Effects of compounds on hERG potassium channel conductance was assessed using the automated patch clamp method QPatch^HTX. Compounds were prepared at 10 mM stocks. CHO cells stably expressing hERG potassium channels were used for this assay. Cells were cultured in a humidified and air-controlled 5% CO2) incubator at 37° C. Compound stocks and the positive control Amitriptyline were dissolved in 100% DMSO to make various solution concentrations. These solutions were further diluted into extracellular solution to achieve final concentrations for testing. The final DMSO concentration in extracellular solution was 0.30%. The hERG QPatch^HTX assay was conducted at room temperature.
The following voltage command protocol was used: • From the holding potential of −80 mV, the voltage was first stepped to −50 mV for 80 ms for leak subtraction, and then stepped to +20 mV for 4,800 ms to open hERG channels. • After which, the voltage was stepped back down to −50 mV for 5,000 ms, causing a “rebound” or tail current, which was measured and collected for data analysis. • Finally, the voltage was stepped back to the holding potential of −80 mV for 3,100 ms.
For each experiment, three additions of 5 μL of the vehicle were applied, followed by 30 runs of the voltage command protocol for a baseline period. Then, the ascending doses of each compound were added with three repetitions (5 μL of compound each time).

[4] = Compound Solubility Assay (kinetic solubility); assay type: physicochemical; settings: kinetic from dmso stock
Protocol: The relative kinetic solubility of each compound was determined at both low (1.2) and neutral (7.4) pH. Compounds were prepared at 10 mM stocks. […] Compounds were allowed to shake at room temperature for 24 hours in 50 mM phosphate buffer pH 7.4, or in SGF buffer pH 1.2 at 37° C. for 24 hours.

CDK4 = CDK4 (Homo sapiens (Human), UniProt P11802); assay: Cdk4 and 6 Enzymatic Inhibition Assay (radiometric 33PanQinase, Ki determination); assay type: biochemical
Chain of CDK4 (P11802 whole entry): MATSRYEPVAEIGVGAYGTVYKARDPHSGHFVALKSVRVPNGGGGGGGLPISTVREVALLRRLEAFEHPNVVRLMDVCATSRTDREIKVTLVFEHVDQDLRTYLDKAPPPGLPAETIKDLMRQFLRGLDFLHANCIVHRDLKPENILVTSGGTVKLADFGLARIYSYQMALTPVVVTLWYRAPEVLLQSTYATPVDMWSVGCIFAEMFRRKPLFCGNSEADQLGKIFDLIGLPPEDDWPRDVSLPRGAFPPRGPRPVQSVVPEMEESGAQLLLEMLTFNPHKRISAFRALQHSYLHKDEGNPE
Chain of CDK4 (P24385 whole entry partner): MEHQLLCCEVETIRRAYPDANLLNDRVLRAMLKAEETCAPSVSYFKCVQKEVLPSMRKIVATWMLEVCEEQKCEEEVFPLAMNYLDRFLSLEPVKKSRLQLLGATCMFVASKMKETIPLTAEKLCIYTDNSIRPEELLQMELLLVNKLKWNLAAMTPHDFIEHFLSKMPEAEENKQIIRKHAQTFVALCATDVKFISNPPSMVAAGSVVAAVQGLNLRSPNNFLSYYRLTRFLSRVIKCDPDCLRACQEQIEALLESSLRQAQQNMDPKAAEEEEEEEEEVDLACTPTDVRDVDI
Protocol: (§3) 10 distinct concentrations were prepared, with a dilution endpoint of 6×10^−9 M in 100% DMSO. 100% DMSO was used as a control. 10 μL from each of the serial dilutions were aliquoted into separate wells of a 96-well plate and 90 μL of water were added to each of those wells. The plate was shaken thoroughly, and 5 μL from each of the plate's wells were transferred into wells of the assay plate. The final volume of wells in the assay plate was 50 μL. A11 compounds were tested at 10 assay concentrations in the range from 2×10^−6 M to 6×10^−11 M. The final DMSO concentration in the wells of the assay plate was 1% in all cases.
(§4) A radiometric protein kinase assay (33PanQinase® Activity Assay) was used for measuring the kinase activity of six protein kinases. A11 kinase assays were performed in 96-well FlashPlates™ from PerkinElmer (Boston, MA, USA). The assay for all protein kinases contained 70 mM HEPES-NaOH pH 7.5, 3 mM MgCl2, 3 mM MnCl2, 3 μM Na-orthovanadate, 1.2 mM DTT, 50 μg/mL PEG20000, ATP [γ-33P]-ATP (approx. 9×1005 cpm per well), protein kinase and substrate. The reaction cocktails were incubated at 30° C. for 60 minutes. The reaction was stopped with 50 μL of 2% (v/v) H3PO4, and plates were aspirated and washed two times with 200 μL 0.9% (w/v) NaCl. Incorporation of ^33Pi was determined with a microplate scintillation counter (Microbeta, Wallac).

CDK6 = CDK6 (Homo sapiens (Human), UniProt Q00534); assay: as above; assay type: biochemical
Chain of CDK6 (Q00534 whole entry): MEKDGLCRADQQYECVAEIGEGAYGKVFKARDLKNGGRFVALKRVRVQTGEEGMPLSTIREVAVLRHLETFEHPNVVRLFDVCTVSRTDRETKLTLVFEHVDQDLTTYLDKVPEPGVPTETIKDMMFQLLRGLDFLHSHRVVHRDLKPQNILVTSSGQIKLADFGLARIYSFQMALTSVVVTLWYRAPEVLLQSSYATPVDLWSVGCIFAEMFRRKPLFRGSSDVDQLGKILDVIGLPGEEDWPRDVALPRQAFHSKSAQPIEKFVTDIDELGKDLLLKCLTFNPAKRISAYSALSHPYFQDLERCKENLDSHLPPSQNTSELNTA
Chain of CDK6 (P24385 whole entry partner): as the sequence (P24385 whole entry partner) above
Protocol: as §3, §4

[5] = Measurement of Compound Metabolic Stability in hepatocytes
Protocol: The metabolic stability of compounds was determined in hepatocytes from mice and rats. Compounds were diluted to 5 μM in Williams' Medium E from 10 mM stock solutions. 10 μL of each compound was aliquoted into a well of a 96-well plate and reactions were started by aliquoting 40 μL of a 625,000 cells/mL suspension into each well. The plate was incubated at 37° C. with 5% CO2. At each corresponding time point, the reaction was stopped by quenching with ACN containing internal standards (IS) at a 1:3. Plates were shaken at 500 rpm for 10 min, and then centrifuged at 3,220×g for 20 minutes. Supernatants were transferred to another 96-well plate containing a dilution solution. Supernatants were analyzed by LC/MS/MS. Compound half-life was estimated using the following equation:

[6] = test system: drug-sensitive cell lines of Table 2 (EFM-19, MDA-MB-453, T-47D, ZR-75-1, NCI-H441, OVTOKO, NCI-H1838); assay: Cell Line Growth Retardation Assay, sensitive cohort; assay type: cell-based, human; settings: for IC50: Homo sapiens, geometric mean over sensitive cohort, 6 days growth, read-out: AvgSensIC50; for Ther Window: average IC50 drug-resistant group divided by average IC50 drug-sensitive group
Protocol: as §1, §2

[7] = 50 mM phosphate buffer, pH 7.4, aqueous buffer, read-out: KS7
[8] = simulated gastric fluid, kinetic solubility, SGF buffer pH 1.2, 37° C., 24 hours, read-out: KS1

Papp A→B at 2 h, 2 μM [1] [×10⁻⁶ cm/s]	IC50 at 10 min [2] [nM]	IC50 [3] [nM]	solubility kinetic at 24 h [4, 7] [µM]	solubility kinetic at 24 h [4, 8] [µM]	Ki (CDK4) [nM]	Ki (CDK6) [nM]	half-life at 1 μM [5] [min]	IC50 [6] [nM]	SMILES	hERG (hERG potassium channels) [%]	Ther Window [6]
0.85	12800	960	3.09 (≈ 1.89 µg/mL)	200 (≈ 123 µg/mL)	1.71	10.2	5.65	140	Cc1nc2c(F)cc(-c3nc(Nc4ccc(CN5CCO[C@@]6(CCN(S(C)(=O)=O)C6)C5)cn4)ncc3F)cc2n1C(C)C [Compound A31, (S)-5-fluoro-4-(4-fluoro-1-isopropyl-2-methyl-1H-benzo[d]imidazol-6-yl)-N-(5-((2-(methylsulfonyl)-6-oxa-2,9-diazaspiro[4.5]decan-9-yl)methyl)pyridin-2-yl)pyrimidin-2-amine]	21.67	6.72
0.17	80200	840	40.5 (≈ 22.2 µg/mL)	200 (≈ 110 µg/mL)	1.47	7.23	38.2	220	Cc1nc2c(F)cc(-c3nc(Nc4ccc(CN5CCO[C@]6(CCN(C)C6)C5)cn4)ncc3F)cc2n1C(C)C [Compound A38]	10.65	3.81
0.91	29000	970	139 (≈ 84.2 µg/mL)	200 (≈ 121 µg/mL)	1.37	7.07	16.8	190	Cc1nc2c(F)cc(-c3nc(Nc4ccc(CN5CCO[C@](C)(CCN6CCOCC6)C5)cn4)ncc3F)cc2n1C(C)C [Compound A19, (R)-5-fluoro-4-(4-fluoro-1-isopropyl-2-methyl-1H-benzo[d]imidazol-6-yl)-N-(5-((2-methyl-2-(2-morpholinoethyl)morpholino)methyl)pyridin-2-yl)pyrimidin-2-amine]	18.14	5.12
0.59	23400	910	3.28 (≈ 1.89 µg/mL)	200 (≈ 115 µg/mL)	1.91	10.8	30.8	250	CC(=O)N1CC[C@@]2(CN(Cc3ccc(Nc4ncc(F)c(-c5cc(F)c6nc(C)n(C(C)C)c6c5)n4)nc3)CCO2)C1 [Compound A36]	21.60	3.57
4.6	30000	990	2.52 (≈ 1.49 µg/mL)	200 (≈ 119 µg/mL)	2.95	16.5	4.99	110	COC(=O)N1CC[C@]2(CN(Cc3ccc(Nc4ncc(F)c(-c5cc(F)c6nc(C)n(C(C)C)c6c5)n4)nc3)CCO2)C1 [Compound A30, methyl (S)-9-((6-((5-fluoro-4-(4-fluoro-1-isopropyl-2-methyl-1H-benzo[d]imidazol-6-yl)pyrimidin-2-yl)amino)pyridin-3-yl)methyl)-6-oxa-2,9-diazaspiro[4.5]decane-2-carboxylate]	15.21	9.41
3.25	35000	730	1.13 (≈ 0.608 µg/mL)	200 (≈ 108 µg/mL)	0.78	5.32	17.5	70	Cc1nc2c(F)cc(-c3nc(Nc4ccc(CN5CCO[C@@](C)(CCO)C5)cn4)ncc3F)cc2n1C(C)C [Compound A50, (S)-2-(4-((6-((5-fluoro-4-(4-fluoro-1-isopropyl-2-methyl-1H-benzo[d]imidazol-6-yl)pyrimidin-2-yl)amino)pyridin-3-yl)methyl)-2-methylmorpholin-2-yl)ethan-1-ol]	18.96	9.87

Second part, the compound before the results:

SMILES	Papp A→B at 2 h, 2 μM [1] [×10⁻⁶ cm/s]	IC50 at 10 min [2] [nM]	IC50 [3] [nM]	solubility kinetic at 24 h [4, 7] [µM]	solubility kinetic at 24 h [4, 8] [µM]	Ki (CDK4) [nM]	Ki (CDK6) [nM]	half-life at 1 μM [5] [min]	IC50 [6] [nM]	hERG (hERG potassium channels) [%]	Ther Window [6]
Cc1nc2c(F)cc(-c3nc(Nc4ccc(CN5CC6(C5)CS(=O)(=O)C6)cn4)ncc3F)cc2n1C(C)C [Compound A62, 6-((6-((5-fluoro-4-(4-fluoro-1-isopropyl-2-methyl-1H-benzo[d]imidazol-6-yl)pyrimidin-2-yl)amino)pyridin-3-yl)methyl)-2-thia-6-azaspiro[3.3]heptane 2,2-dioxide]	0.15	33900	730	1 (≈ 0.54 µg/mL)	190 (≈ 103 µg/mL)	0.59	3.8	33.9	90	40.8	8.11
Cc1nc2c(F)cc(-c3nc(Nc4ccc(CN5CCO[C@](C)(CCNCC(F)(F)F)C5)cn4)ncc3F)cc2n1C(C)C [Compound A9, (R)-5-fluoro-4-(4-fluoro-1-isopropyl-2-methyl-1H-benzo[d]imidazol-6-yl)-N-(5-((2-methyl-2-(2-((2,2,2-trifluoroethyl)amino)ethyl)morpholino)methyl)pyridin-2-yl)pyrimidin-2-amine]	2.14	26100	1000	1 (≈ 0.619 µg/mL)	200 (≈ 124 µg/mL)	2.54	14.5	15.3	120	21.86	8.59
Cc1nc2c(F)cc(-c3nc(Nc4ccc(CN5CCO[C@](C)(CCN6CC[C@H](F)C6)C5)cn4)ncc3F)cc2n1C(C)C [Compound A14, 5-fluoro-4-(4-fluoro-1-isopropyl-2-methyl-1H-benzo[d]imidazol-6-yl)-N-(5-(((R)-2-(2-((S)-3-fluoropyrrolidin-1-yl)ethyl)-2-methylmorpholino)methyl)pyridin-2-yl)pyrimidin-2-amine]	0.69	16900	980			0.92	4.99	10.7	80	23.34	11.53
Cc1nc2c(F)cc(-c3nc(Nc4ccc(CN5CCO[C@](C)(CCN6CCC6)C5)cn4)ncc3F)cc2n1C(C)C [Compound A17, (R)—N-(5-((2-(2-(azetidin-1-yl)ethyl)-2-methylmorpholino)methyl)pyridin-2-yl)-5-fluoro-4-(4-fluoro-1-isopropyl-2-methyl-1H-benzo[d]imidazol-6-yl)pyrimidin-2-amine]	0.02	51700	850			1.03	5.25	217	50	20.47	15.41
COC1(C)CN(CC[C@]2(C)CN(Cc3ccc(Nc4ncc(F)c(-c5cc(F)c6nc(C)n(C(C)C)c6c5)n4)nc3)CCO2)C1 [Compound A18, (R)-5-fluoro-4-(4-fluoro-1-isopropyl-2-methyl-1H-benzo[d]imidazol-6-yl)-N-(5-((2-(2-(3-methoxy-3-methylazetidin-1-yl)ethyl)-2-methylmorpholino)methyl)pyridin-2-yl)pyrimidin-2-amine]	0.11	26800	920			1.55	7.62	67.7	90	21.45	10.77
